Data set [1] deals with Caco-2:HT29-MTX E12 coculture tubules. As to the kind of experiment: Live cell imaging of cellular uptake and intracellular localization in coculture tubules. It counts as cell-based, human. On the procedure: Spinning disc (SD) confocal microscopy was performed on a Nikon Ti2 inverted microscope equipped with a Yokogawa CSU-W1 module and a Photometrics Prime 95B sCMOS camera was used for all experiments (excl. Image-based TAT transport). The set-up includes four excitation lasers 405/488/561/638 nm with 442/42, 520/28 BrightLine HC filters and 600/50 ET, 700/75 ET bandpass filters. For this work, a set of CFI Plan Apochromat Lambda objectives were used: ×4/0.2, 20x/0.75, 60x/1.4 and 100x/1.45. For image-based transport experiments, epi-fluorescence microscopy was performed using a Nikon Eclipse Ti2 microscope equipped with an LED source (CoolLED), a dual-band filter cube (AHF, Excitation 455–489 nm, 557–588 nm; Emission 506–542 nm, 605–660 nm) and a Photometrics Evolve 512 electron-multiplying charge-coupled device camera was used (10x N.A. 0.30).
Here, the cells were counterstained with Hoechst (H1399, Thermo Fischer, 10 μg ml^−1) and incubated for 1 h at 37°C, 5% CO2, washed with PBS and images were acquired using SD confocal microscopy with 488 nm laser and 520/28 BrightLine HC filters for detecting FITC-labelled TAT and the 405 nm laser and 442/42 BrightLine HC filter for acquiring Hoechst. […] The transport of TAT was tracked over 2 h, acquiring time lapse images every 30 s using epi-fluorescence microscopy (see Imaging modalities). […]

For data set [2] the test system is unchanged. As to the kind of experiment: Barrier integrity monitored by co-applied TRITC-dextran (TD) during peptide transport. The following applies: INS chips with and without TAT. It counts as cell-based, human. As for the experimental part:
Here, the cells were counterstained with Hoechst (H1399, Thermo Fischer, 10 μg ml^−1) and incubated for 1 h at 37°C, 5% CO2, washed with PBS and images were acquired using SD confocal microscopy with 488 nm laser and 520/28 BrightLine HC filters for detecting FITC-labelled TAT and the 405 nm laser and 442/42 BrightLine HC filter for acquiring Hoechst. The cell tubules exposed to TAT/INS (24 µM/50 μM, IS1-AF647-1, Nanocs) were stained with above mentioned cellular dyes and CellMask-green (C37608, Thermo Fisher, 1:500) for 30 min on ice after 3 h of incubation. The transport of TAT was tracked over 2 h, acquiring time lapse images every 30 s using epi-fluorescence microscopy (see Imaging modalities). […] To simultaneously monitor the barrier integrity TD (0.5 mg ml^−1) was co-applied to the chips and measured in parallel to TAT. For the quantification of both TAT, INS and TD transport across the cell barrier, calibration curves were established. […]
Next we used the platform to study the barrier transport kinetics of TAT. We performed whole-chip real-time live cell imaging, to quantify the concentration of TAT transported across the coculture cell layer and reaching the receiving channel (Figure 6B). […] Both the FITC and TRITC channels were recorded for each tubular system every 30 s for a total of 2.5 h. […]

Data set [3] has the same test system. As to the kind of experiment: Image-based real-time quantification of TAT and TAT/INS transport across coculture tubules. The following applies: 50 µM INS, whether or not TAT (24 µM) was present, over 3 h, n = 3.
Description: We performed whole-chip real-time live cell imaging, to quantify the concentration of TAT transported across the coculture cell layer and reaching the receiving channel (Figure 6B). […] Both the FITC and TRITC channels were recorded for each tubular system every 30 s for a total of 2.5 h. […] A calibration experiment where known concentrations of TAT or TD were added to a chip without cells allowed us to convert the measured intensities to actual concentration in μM and mg mL^−1 respectively (Supplementary Figure S5). […]

On to “INS: AlexaFluor647-labeled insulin (IS1-AF647-1, Nanocs)”, for which the “Intracellular localization of INS” value in data set [1] (INS and INS/TAT, 3 h, 100x, indicating endosomal uptake) is “localized inside the cytosol in punctual patterns”. The “Cellular internalization of INS” value in data set [1] (after 3 h, live cell imaging, with and without TAT) was “internalized into the enterocyte cell layer even without TAT”. Further, in data set [2], the Barrier integrity result was “not compromised significantly”. Besides, the “INS transport across the cell barrier” value in data set [3] was “no INS transport across the cell barrier”.

The values are drawn from publication PMC9500407, “Quantifying the transport of biologics across intestinal barrier models in real-time by fluorescent imaging” (Frontiers in Bioengineering and Biotechnology, 2022).
